# From patent publication US8815909B2, “Diaminocyclohexane compounds and uses thereof” (Bristol-Myers Squibb Company, priority 2011, dated 2014)
# Like-named read-outs stand apart in the source and are kept apart here.
# Biological target: T1, human Y4 receptor (Homo sapiens, UniProt P50391)
# T1 construct: expressed in transfected cells
# Experiment: NPY4 cAMP HTRF Agonist Assay (inhibitory cAMP assay, Gi activation by Y4 agonism)
# Assay type: cell-based
# In short: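 CHO cells stably expressing human Y4, 5000/well, exposed to compound with forskolin and IBMX in PBS for 30 min at room temperature. Gi-mediated inhibition of cAMP then measured by HTRF after 1 h with d2-conjugate and anti-cAMP cryptate.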
# [1] = TABLE 7, R2 is Pyridinyl-oxadiazole-CH3, read-out: hY4 CAMP EC50
# [2] = TABLE 4, R2 is Pyridinyl-CN, read-out: hY4 CAMP EC50
# [3] = human Y4 receptor, cAMP, read-out: hY4 CAMP EC50
# [4] = human Y4 stable CHO clonal cells, forskolin + IBMX, read-out: NPY4 cAMP HTRF Agonist Assay EC50
# [5] = TABLE 2, R2 is Phenyl-CN, read-out: hY4 CAMP EC50
# [6] = TABLE 5, R2 is Pyridinyl-CF3, read-out: hY4 CAMP EC50
# [7] = second TABLE 1, R2 is Phenyl-CF3, read-out: hY4 CAMP EC50
# T1 sequence (P50391 whole entry): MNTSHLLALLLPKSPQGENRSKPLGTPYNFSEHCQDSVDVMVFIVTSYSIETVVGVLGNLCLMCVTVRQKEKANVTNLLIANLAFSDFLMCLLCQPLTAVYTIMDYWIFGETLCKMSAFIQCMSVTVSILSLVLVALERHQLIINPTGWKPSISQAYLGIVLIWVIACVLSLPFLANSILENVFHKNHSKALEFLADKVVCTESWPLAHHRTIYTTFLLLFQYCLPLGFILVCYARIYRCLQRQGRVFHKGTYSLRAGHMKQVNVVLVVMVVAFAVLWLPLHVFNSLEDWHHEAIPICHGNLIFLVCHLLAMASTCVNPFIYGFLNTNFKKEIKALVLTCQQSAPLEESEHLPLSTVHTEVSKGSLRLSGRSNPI
structure (smiles),measurement,setting,value
Cc1nc(-c2ccc(N3CCC[C@H](N[C@@H]4CCCC[C@H]4Nc4ncc(-c5cccc(C(N)=O)c5)o4)C3)cn2)no1 [Example 397],EC50,[1],0.003 µM
N#Cc1ccc(N2C[C@@H]3C[C@H](N[C@@H]4CCCC[C@H]4Nc4cc(-c5cccc(C(N)=O)c5)ccn4)[C@H]2C3)nc1 [Example 299],EC50,[2],0.392 µM
C[C@]1(N[C@@H]2CCCC[C@H]2Nc2cc(-c3cccc(C(N)=O)c3)ccn2)CCCN(c2ccc(C#N)cn2)C1 [Example 301],EC50,[2],0.066 µM
N#Cc1ccc(N2CCC[C@H](N[C@@H]3CCCC[C@H]3Nc3cc(-c4cccc(C(N)=O)c4)ccn3)C2)cn1 [Example 316],EC50,[2],0.165 µM
Cn1nnnc1-c1ccc(N2CCC[C@H](N[C@@H]3CCCC[C@H]3Nc3nccc(-c4ccccc4)n3)C2)cc1 [Example 502],EC50,[3],0.098 µM
CNC(=O)c1cccc(-c2cnc(N[C@@H]3CCCC[C@H]3N[C@H]3CCCN(c4ccc5ncnn5c4)C3)o2)c1 [Example 485],EC50,[3],0.058 µM
"C[C@]1(N[C@@H]2CCCC[C@H]2Nc2ncc(-c3ccc(OC(F)(F)F)cc3)o2)CCCN(c2ccc([N+](=O)[O-])cc2)C1 [Example 96, (1R,2R)—N1-((S)-3-Methyl-1-(4-nitrophenyl)piperidin-3-yl)-N2-(5-(4-(trifluoromethoxy)phenyl)oxazol-2-yl)cyclohexane-1,2-diamine bis-trifluoroacetate]",EC50,[4],0.001 µM
"FC(F)(F)Oc1ccc(-c2cnc(N[C@@H]3CCCC[C@H]3N[C@H]3CCCN(c4ccc(C(F)(F)F)cc4)C3)o2)cc1 [Example 71, (1R,2R)—N1-(5-(4-(Trifluoromethoxy)phenyl)oxazol-2-yl)-N2-((S)-1-(4-(trifluoromethyl)phenyl)piperidin-3-yl)cyclohexane-1,2-diamine]",EC50,[4],0.045 µM
"O=[N+]([O-])c1ccc(N2CCC[C@H](N[C@@H]3CCCC[C@H]3Nc3nnc(-c4ccccc4)o3)C2)cc1 [Example 27, (1R,2R)—N1-((S)-1-(4-Nitrophenyl)piperidin-3-yl)-N2-(5-phenyl-1,3,4-oxadiazol-2-yl)cyclohexane-1,2-diamine]",EC50,[4],0.06 µM
CCc1nc(-c2ccc(N3CCC[C@H](N[C@@H]4CCCC[C@H]4Nc4ncc(-c5cccc(C(N)=O)c5)o4)C3)nc2)no1 [Example 448],EC50,[3],0.002 µM
NC(=O)c1cccc(-c2ccnc(N[C@@H]3CCCC[C@H]3N[C@H]3C[C@@H]4C[C@H]3N(c3cnc(C(F)(F)F)cn3)C4)c2)c1 [Example 471],EC50,[3],0.329 µM
Cc1nnc(-c2ccc(N3CCC[C@H](N[C@@H]4CCCC[C@H]4Nc4cc(-c5ccc(OC(F)F)cc5)ccn4)C3)cc2)o1 [Example 375],EC50,[3],0.217 µM
N#Cc1ccc(N2CCC[C@H](N[C@@H]3CCCC[C@H]3Nc3cc(-c4cccc(Cl)c4)ccn3)C2)cc1 [Example 250],EC50,[5],0.559 µM
Cc1nnc(-c2ccc(N3CCCC(N[C@@H]4CCCC[C@H]4Nc4cc(-c5ccncc5)ccn4)C3)cc2)o1 (stereo partly drawn) [Example 369],EC50,[3],0.005 µM
COC(=O)c1cccc(-c2cnc(N[C@@H]3CCCC[C@H]3N[C@H]3CCCN(c4ccc(C(F)(F)F)cn4)C3)o2)c1 [Example 330],EC50,[6],0.166 µM
OCCCCc1ccnc(N[C@@H]2CCCC[C@H]2N[C@H]2CCCN(c3ccc(C(F)(F)F)cc3)C2)c1 [Example 187],EC50,[7],0.042 µM
COC(=O)Nc1cccc(-c2cnc(N[C@@H]3CCCC[C@H]3N[C@H]3CCCN(c4ccc5nc(C)nn5c4)C3)o2)c1 [Example 490],EC50,[3],0.001 µM
COC(=O)Nc1cccc(-c2ccnc(N[C@@H]3CCCC[C@H]3N[C@H]3CCCN(c4ccc(C#N)cc4)C3)c2)c1 [Example 201],EC50,[5],0.005 µM
N#Cc1ccc(N2CCC[C@H](N[C@@H]3CCCC[C@H]3Nc3cc(-c4ccc5nccnc5c4)ccn3)C2)cc1 [Example 221],EC50,[5],0.077 µM
Cc1nc(-c2ccc(N3CCC[C@](C)(N[C@@H]4CCCC[C@H]4Nc4cc(-c5cccc(C(N)=O)c5)ccn4)C3)cn2)no1 [Example 381],EC50,[1],0.005 µM
"Cc1nnc(-c2ccc(N3CCC[C@H](N[C@@H]4CCCC[C@H]4Nc4ncc(-c5ccc(OC(F)(F)F)cc5)o4)C3)cc2)o1 [Example 85, (1R,2R)—N1-((S)-1-(4-(5-Methyl-1,3,4-oxadiazol-2-yl)phenyl)piperidin-3-yl)-N2-(5-(4-(trifluoromethoxy)phenyl)oxazol-2-yl)cyclohexane-1,2-diamine]",EC50,[4],0.145 µM
FC(F)(F)c1ccc(N2CCC[C@H](N[C@@H]3CCCC[C@H]3Nc3cc(-c4ccc5scnc5c4)ccn3)C2)cc1 [Example 157],EC50,[7],0.194 µM
CCCNC(=O)c1cccc(-c2ccnc(N[C@@H]3CCCC[C@H]3N[C@H]3CCCN(c4ccc(C(F)(F)F)cc4)C3)c2)c1 [Example 139],EC50,[7],0.029 µM
N#Cc1cnc(N2C[C@@H]3C[C@H](N[C@@H]4CCCC[C@H]4Nc4ncc(-c5ccc(OC(F)(F)F)cc5)o4)[C@H]2C3)nc1 [Example 440],EC50,[3],0.015 µM
O=C(NC1CCCC1)c1cccc(-c2ccnc(N[C@@H]3CCCC[C@H]3N[C@H]3CCCN(c4ccc(C(F)(F)F)cc4)C3)c2)c1 [Example 150],EC50,[7],0.192 µM
N#Cc1ccc(N2C[C@@H]3C[C@H](N[C@@H]4CCCC[C@H]4Nc4cc(-c5ccccc5)ccn4)[C@H]2C3)cc1 [Example 232],EC50,[5],0.037 µM
Cc1noc(-c2ccc(N3CCC[C@H](N[C@@H]4CCCC[C@H]4Nc4cc(-c5cccc(C(C)(C)O)c5)ccn4)C3)cc2)n1 [Example 362],EC50,[3],0.023 µM
"FC(F)(F)c1cnc(N2CCC[C@H](N[C@@H]3CCCC[C@H]3Nc3ncc(-c4ccccc4)o3)C2)nc1 [Example 79, (1R,2R)—N1-(5-Phenyloxazol-2-yl)-N2-((S)-1-(5-(trifluoromethyl)pyrimidin-2-yl)piperidin-3-yl)cyclohexane-1,2-diamine bis-trifluoroacetate]",EC50,[4],0.083 µM
O=C(NC1CC1)c1cccc(-c2cnc(N[C@@H]3CCCC[C@H]3N[C@H]3CCCN(c4cnc(C(F)(F)F)nc4)C3)o2)c1 [Example 411],EC50,[3],0.01 µM
N#Cc1ccc(N2C[C@@H]3C[C@H](N[C@@H]4CCCC[C@H]4Nc4ncc(-c5cccc(C#N)c5)o4)[C@H]2C3)cc1 [Example 266],EC50,[5],0.181 µM
NC(=O)c1cccc(-c2ccnc(N[C@@H]3CCCC[C@H]3N[C@H]3CCCN(c4ccc(-n5cccn5)cc4)C3)c2)c1 [Example 511],EC50,[3],0.023 µM
N#Cc1cnc(N2CCCC(N[C@@H]3CCCC[C@H]3Nc3ncc(-c4cccc(C(N)=O)c4)o3)C2)nc1 (stereo partly drawn) [Example 437],EC50,[3],0.035 µM
Cc1nc(-c2ccc(N3CCC[C@H](N[C@@H]4CCCC[C@H]4Nc4nccc(-c5ccccc5)n4)C3)cn2)no1 [Example 395],EC50,[1],0.005 µM
CC(=O)Nc1cccc(-c2ccnc(N[C@@H]3CCCC[C@H]3N[C@H]3CCCN(c4ccc(-c5nnn(C)n5)cc4)C3)c2)c1 [Example 506],EC50,[3],0.0002 µM
Cn1nnc(-c2ccc(N3CCC[C@H](N[C@@H]4CCCC[C@H]4Nc4ncc(-c5ccc(OC(F)(F)F)cc5)o4)C3)cc2)n1 [Example 499],EC50,[3],0.0014 µM
N#Cc1ccc(N2C[C@@H]3C[C@H](N[C@@H]4CCCC[C@H]4Nc4ncc(-c5ccc(C(N)=O)cc5)o4)[C@H]2C3)cc1 [Example 238],EC50,[5],0.272 µM
O=C(Nc1cccc(-c2cnc(N[C@@H]3CCCC[C@H]3N[C@H]3CCCN(c4ccc5ncnn5c4)C3)o2)c1)C1CC1 [Example 487],EC50,[3],0.016 µM
N#Cc1ccc(N2CCC[C@H](N[C@@H]3CCCC[C@H]3Nc3cc(Cc4ccn[nH]4)ccn3)C2)cc1 [Example 214],EC50,[5],0.964 µM
"FC(F)(F)Oc1ccc(-c2cnc(N[C@@H]3CCCC[C@H]3N[C@H]3CCCN(c4ncc(C(F)(F)F)cn4)C3)o2)cc1 [Example 80, (1R,2R)—N1-(5-(4-(Trifluoromethoxy)phenyl)oxazol-2-yl)-N2-((S)-1-(5-(trifluoromethyl)pyrimidin-2-yl)piperidin-3-yl)cyclohexane-1,2-diamine bis-trifluoroacetate]",EC50,[4],0.242 µM
CC(C)(O)c1cccc(-c2cnc(N[C@@H]3CCCC[C@H]3N[C@H]3CCCN(c4ccc(C#N)cc4)C3)o2)c1 [Example 207],EC50,[5],0.039 µM
OCCCCCc1ccnc(N[C@@H]2CCCC[C@H]2N[C@H]2CCCN(c3ccc(C(F)(F)F)cc3)C2)c1 [Example 186],EC50,[7],0.115 µM
CC(C)(C)c1cccc(-c2ccnc(N[C@@H]3CCCC[C@H]3N[C@H]3CCCN(c4ccc(C#N)cc4)C3)c2)c1 [Example 259],EC50,[5],0.059 µM
"NC(=O)c1cccc(-c2cnc(N[C@@H]3CCCC[C@H]3N[C@H]3CCCN(c4cnc(C(F)(F)F)nc4)C3)o2)c1 [Example 97, 3-(2-(((1R,2R)-2-(((S)-1-(2-(trifluoromethyl)pyrimidin-5-yl)piperidin-3-yl)amino)cyclohexyl)amino)oxazol-5-yl)benzamide]",EC50,[4],0.006 µM
Cc1nnc(-c2ccc(N3CCC[C@H](N[C@@H]4CCCC[C@H]4Nc4cc(-c5cccc(S(N)(=O)=O)c5)ccn4)C3)cc2)o1 [Example 377],EC50,[3],0.093 µM
"O=[N+]([O-])c1ccc(N2CCC[C@H](N[C@@H]3CCCC[C@H]3Nc3ncc(-c4cccc(F)c4)o3)C2)cc1 [Example 19, (1R,2R)—N1-(5-(3-Fluorophenyl)oxazol-2-yl)-N2-((S)-1-(4-nitrophenyl)piperidin-3-yl)cyclohexane-1,2-diamine]",EC50,[4],0.023 µM
C[C@]1(N[C@@H]2CCCC[C@H]2Nc2cc(-c3cccc(C(N)=O)c3)ccn2)CCCN(c2ncc(C(F)(F)F)cn2)C1 [Example 400],EC50,[3],0.028 µM
"O=[N+]([O-])c1ccc(N2C[C@@H]3C[C@H](N[C@@H]4CCCC[C@H]4Nc4ncc(-c5ccccc5F)o4)[C@H]2C3)cc1 [Example 15, (1R,2R)—N1-(5-(2-Fluorophenyl)oxazol-2-yl)-N2-((1R,4R,6S)-2-(4-nitrophenyl)-2-azabicyclo[2.2.1]heptan-6-yl)cyclohexane-1,2-diamine]",EC50,[4],0.008 µM
COC(=O)Nc1cccc(-c2cnc(N[C@@H]3CCCC[C@H]3N[C@H]3CCCN(c4ccc(C(F)(F)F)nc4)C3)o2)c1 [Example 331],EC50,[6],0.005 µM
